Laboratory results taken from paper PMC11233931, “Remodeling tumor‐associated macrophage for anti‐cancer effects by rational design of irreversible inhibition of mitogen‐activated protein kinase‐activated protein kinase 2” (MedComm, 2024).

Assays:
Experiment in all cases: Eurofins kinase selectivity profile against 380 other human recombinant kinases (Table S2)
Type in all cases: biochemical
[1] = target: T1, 380 human recombinant protein kinases (Homo sapiens, UniProt P35968); conditions: KDR(h), read-out: Inhibition rate
T1 construct: purchased Eurofins (Celle Lévescault)
Summary of the method: (§1)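 The inhibitor was sent to a contract lab and screened at various concentrations against 380 human recombinant protein kinases. This served as a counter-screen for MK2 specificity.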

[2] = target: T2, 380 human recombinant protein kinases (Homo sapiens, UniProt O15111); conditions: IKKα(h), read-out: Inhibition rate
T2 construct: purchased Eurofins (Celle Lévescault)
T2 sequence (O15111 1-745): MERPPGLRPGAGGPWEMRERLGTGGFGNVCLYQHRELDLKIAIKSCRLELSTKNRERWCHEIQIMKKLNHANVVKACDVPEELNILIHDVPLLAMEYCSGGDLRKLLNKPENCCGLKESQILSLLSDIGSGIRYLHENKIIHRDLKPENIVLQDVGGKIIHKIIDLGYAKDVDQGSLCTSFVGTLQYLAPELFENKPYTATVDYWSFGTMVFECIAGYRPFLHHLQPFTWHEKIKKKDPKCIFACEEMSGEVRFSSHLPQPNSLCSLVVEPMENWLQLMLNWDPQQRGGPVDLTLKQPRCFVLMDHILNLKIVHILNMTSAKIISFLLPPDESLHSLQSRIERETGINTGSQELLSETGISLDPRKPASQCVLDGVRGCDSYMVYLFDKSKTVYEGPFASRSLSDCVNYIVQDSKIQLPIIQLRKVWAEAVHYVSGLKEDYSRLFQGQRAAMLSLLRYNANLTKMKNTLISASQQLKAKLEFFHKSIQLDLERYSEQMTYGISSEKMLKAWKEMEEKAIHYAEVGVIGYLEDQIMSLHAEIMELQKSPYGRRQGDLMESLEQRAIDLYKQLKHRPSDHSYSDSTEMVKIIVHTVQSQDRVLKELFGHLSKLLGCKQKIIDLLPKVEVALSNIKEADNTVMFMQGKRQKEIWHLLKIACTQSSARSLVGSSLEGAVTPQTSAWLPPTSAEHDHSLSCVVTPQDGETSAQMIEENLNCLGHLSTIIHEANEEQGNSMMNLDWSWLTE
Summary of the method: as §1

[3] = target: T3, 380 human recombinant protein kinases (Homo sapiens, UniProt P35626); conditions: GRK3(h), read-out: Inhibition rate
T3 construct: purchased Eurofins (Celle Lévescault)
T3 sequence (P35626 1-688): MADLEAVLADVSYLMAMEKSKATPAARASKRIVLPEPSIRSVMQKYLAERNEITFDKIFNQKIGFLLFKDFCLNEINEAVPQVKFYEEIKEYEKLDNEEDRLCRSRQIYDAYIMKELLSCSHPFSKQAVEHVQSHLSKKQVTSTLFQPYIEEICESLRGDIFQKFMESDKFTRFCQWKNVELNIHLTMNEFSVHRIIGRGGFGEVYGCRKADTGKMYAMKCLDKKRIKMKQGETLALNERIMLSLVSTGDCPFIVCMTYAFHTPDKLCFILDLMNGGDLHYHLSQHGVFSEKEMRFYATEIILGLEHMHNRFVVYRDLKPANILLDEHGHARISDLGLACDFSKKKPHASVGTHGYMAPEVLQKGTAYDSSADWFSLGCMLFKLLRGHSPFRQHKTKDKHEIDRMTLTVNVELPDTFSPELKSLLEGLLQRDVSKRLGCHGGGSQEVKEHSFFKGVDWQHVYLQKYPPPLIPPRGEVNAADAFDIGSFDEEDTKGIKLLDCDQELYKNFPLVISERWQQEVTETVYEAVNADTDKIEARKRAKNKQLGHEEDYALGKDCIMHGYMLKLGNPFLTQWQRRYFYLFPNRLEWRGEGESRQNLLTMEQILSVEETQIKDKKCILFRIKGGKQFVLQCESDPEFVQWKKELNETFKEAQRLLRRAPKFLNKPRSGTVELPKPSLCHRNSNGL
Summary of the method: as §1

[4] = target: T4, 380 human recombinant protein kinases (Homo sapiens, UniProt Q16566); conditions: CaMKIV(h), read-out: Inhibition rate
T4 construct: purchased Eurofins (Celle Lévescault)
T4 sequence (Q16566 1-473): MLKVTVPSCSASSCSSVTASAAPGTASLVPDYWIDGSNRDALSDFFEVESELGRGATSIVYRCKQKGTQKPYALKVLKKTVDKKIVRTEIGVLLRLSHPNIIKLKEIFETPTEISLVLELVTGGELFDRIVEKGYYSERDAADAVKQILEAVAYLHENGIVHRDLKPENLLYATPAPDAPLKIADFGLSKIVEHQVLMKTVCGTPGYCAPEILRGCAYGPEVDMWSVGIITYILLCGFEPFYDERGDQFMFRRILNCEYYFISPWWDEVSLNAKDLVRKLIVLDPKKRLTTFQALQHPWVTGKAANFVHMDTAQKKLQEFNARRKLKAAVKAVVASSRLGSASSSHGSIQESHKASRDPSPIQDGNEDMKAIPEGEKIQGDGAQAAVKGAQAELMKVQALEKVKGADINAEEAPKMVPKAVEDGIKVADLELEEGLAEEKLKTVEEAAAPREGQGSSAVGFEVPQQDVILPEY
Summary of the method: as §1

[5] = target: T5, 380 human recombinant protein kinases (Homo sapiens, UniProt Q06187, R28H); conditions: BTK(R28H)(h), read-out: Inhibition rate
T5 construct: purchased Eurofins (Celle Lévescault)
Summary of the method: as §1

T1 sequence (P35968 20-1356): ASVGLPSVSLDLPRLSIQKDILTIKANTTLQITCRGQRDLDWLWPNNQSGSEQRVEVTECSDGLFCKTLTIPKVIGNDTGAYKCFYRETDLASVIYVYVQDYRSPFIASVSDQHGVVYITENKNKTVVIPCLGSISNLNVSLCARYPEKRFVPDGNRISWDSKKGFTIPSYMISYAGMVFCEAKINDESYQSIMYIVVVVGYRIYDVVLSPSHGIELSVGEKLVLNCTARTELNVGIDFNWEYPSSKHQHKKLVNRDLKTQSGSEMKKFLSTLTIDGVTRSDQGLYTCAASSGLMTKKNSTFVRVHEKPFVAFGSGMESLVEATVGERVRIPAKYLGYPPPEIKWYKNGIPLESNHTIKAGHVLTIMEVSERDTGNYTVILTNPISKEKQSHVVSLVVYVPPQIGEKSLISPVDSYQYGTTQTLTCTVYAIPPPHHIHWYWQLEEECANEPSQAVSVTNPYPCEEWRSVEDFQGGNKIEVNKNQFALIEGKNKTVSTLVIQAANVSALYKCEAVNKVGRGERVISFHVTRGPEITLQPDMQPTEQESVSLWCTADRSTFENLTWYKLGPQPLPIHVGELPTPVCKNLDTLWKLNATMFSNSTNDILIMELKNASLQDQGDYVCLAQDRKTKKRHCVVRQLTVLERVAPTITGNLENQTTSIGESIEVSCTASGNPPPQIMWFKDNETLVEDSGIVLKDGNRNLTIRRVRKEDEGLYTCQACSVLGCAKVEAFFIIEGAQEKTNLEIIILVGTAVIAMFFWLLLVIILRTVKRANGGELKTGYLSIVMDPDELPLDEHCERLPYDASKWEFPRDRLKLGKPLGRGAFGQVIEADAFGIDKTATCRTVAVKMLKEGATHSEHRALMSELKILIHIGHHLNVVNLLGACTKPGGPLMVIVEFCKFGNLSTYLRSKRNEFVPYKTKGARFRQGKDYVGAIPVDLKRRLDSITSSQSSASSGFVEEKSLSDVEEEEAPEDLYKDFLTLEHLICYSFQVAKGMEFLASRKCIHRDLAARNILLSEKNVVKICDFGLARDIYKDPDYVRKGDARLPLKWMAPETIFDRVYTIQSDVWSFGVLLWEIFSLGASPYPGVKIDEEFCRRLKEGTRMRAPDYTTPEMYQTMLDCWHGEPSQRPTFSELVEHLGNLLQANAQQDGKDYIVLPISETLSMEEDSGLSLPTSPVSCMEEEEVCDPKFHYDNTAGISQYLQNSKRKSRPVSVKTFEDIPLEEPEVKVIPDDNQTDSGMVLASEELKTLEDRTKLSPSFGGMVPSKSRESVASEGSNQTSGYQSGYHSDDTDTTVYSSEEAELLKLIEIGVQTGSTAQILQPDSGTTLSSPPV
T5 sequence (Q06187 whole entry R28H): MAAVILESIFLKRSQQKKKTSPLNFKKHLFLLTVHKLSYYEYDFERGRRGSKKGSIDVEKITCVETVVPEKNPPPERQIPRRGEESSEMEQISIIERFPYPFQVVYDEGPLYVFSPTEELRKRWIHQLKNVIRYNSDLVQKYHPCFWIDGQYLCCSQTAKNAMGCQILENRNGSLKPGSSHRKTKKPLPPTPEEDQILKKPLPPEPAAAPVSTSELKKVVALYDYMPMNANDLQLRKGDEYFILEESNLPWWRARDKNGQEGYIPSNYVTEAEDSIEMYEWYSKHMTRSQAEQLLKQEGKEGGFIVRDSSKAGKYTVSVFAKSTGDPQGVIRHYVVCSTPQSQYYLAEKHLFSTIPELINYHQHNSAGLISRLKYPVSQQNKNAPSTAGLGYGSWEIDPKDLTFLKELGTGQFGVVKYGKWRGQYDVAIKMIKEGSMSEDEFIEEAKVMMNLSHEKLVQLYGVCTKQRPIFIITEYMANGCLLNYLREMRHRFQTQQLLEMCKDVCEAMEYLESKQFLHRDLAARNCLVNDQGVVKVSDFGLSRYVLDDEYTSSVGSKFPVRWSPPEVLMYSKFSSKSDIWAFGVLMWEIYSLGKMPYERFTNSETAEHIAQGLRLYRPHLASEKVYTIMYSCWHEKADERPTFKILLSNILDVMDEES

Compound `C=CC(=O)Nc1cc(-c2cc(-c3cc4c([nH]3)CCNC4=O)ccn2)ccc1OC(F)(F)F` [compound 11] has an inhibition at 0.01 µM ([1]; 10 nM) of 4%, an inhibition at 0.1 µM ([1]; 100 nM) of 5% and an inhibition at 1 µM ([1]; 1000 nM) of 31%. For the same compound, the inhibition at 0.01 µM ([2]; 10 nM) was -15%, the inhibition at 0.1 µM ([2]; 100 nM) was -14% and the inhibition at 1 µM ([2]; 1000 nM) was -5%. It also gave an inhibition at 0.01 µM ([3]; 10 nM) of -3%, an inhibition at 0.1 µM ([3]; 100 nM) of -8% and an inhibition at 1 µM ([3]; 1000 nM) of -2%. It also gave an inhibition at 0.01 µM ([4]; 10 nM) of 9%, an inhibition at 0.1 µM ([4]; 100 nM) of 8% and an inhibition at 1 µM ([4]; 1000 nM) of 6%. The inhibition at 0.01 µM ([5]; 10 nM) was -27%, the inhibition at 0.1 µM ([5]; 100 nM) was 6% and the inhibition at 1 µM ([5]; 1000 nM) was 1%.
